Results taken from PubChem BioAssay (NCI).
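96-well plates; 48 h exposure; 5 concentrations. Endpoints by linear interpolation between flanking doses. Not reached: highest tested concentration assigned. GI50: concentration for 50% inhibition of growth. Definition used: TGI = concentration required for complete inhibition of growth.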

What was measured:
Test in all cases: inhibition of tumour cell growth, NCI panel, 48 h
[1] = tested on: SF-539 CNS
[2] = tested on: CCRF-CEM leukemia
[3] = tested on: MALME-3M melanoma
[4] = tested on: OVCAR-3 ovarian
[5] = tested on: HCT-15 colon
[6] = tested on: SF-268 CNS
[7] = tested on: SK-MEL-2 melanoma
[8] = tested on: SNB-75 CNS
[9] = tested on: SN12C renal
[10] = tested on: SR leukemia
[11] = tested on: UACC-62 melanoma
[12] = tested on: UO-31 renal
[13] = tested on: HS 578T breast
[14] = tested on: HCC-2998 colon
[15] = tested on: SNB-19 CNS
[16] = tested on: RPMI-8226 leukemia
[17] = tested on: NCI-H23 lung
[18] = tested on: T-47D breast
[19] = tested on: SW-620 colon
[20] = tested on: HL-60(TB) leukemia
[21] = tested on: U251 CNS
[22] = tested on: SK-MEL-28 melanoma
[23] = tested on: HOP-92 NSCLC
[24] = tested on: 786-0 renal
[25] = tested on: DU-145 prostate
[26] = tested on: K-562 leukemia
[27] = tested on: OVCAR-5 ovarian
[28] = tested on: NCI-H460 lung
[29] = tested on: MOLT-4 leukemia
[30] = tested on: A498 renal
[31] = tested on: OVCAR-4 ovarian
[32] = tested on: HT29 colon
[33] = tested on: KM12 colon
[34] = tested on: NCI/ADR-RES ovarian
[35] = tested on: EKVX NSCLC
[36] = tested on: SF-295 CNS
[37] = tested on: COLO 205 colon
[38] = tested on: OVCAR-8 ovarian
[39] = tested on: BT-549 breast
[40] = tested on: A549 NSCLC
[41] = tested on: PC-3 prostate
[42] = tested on: NCI-H522 lung
[43] = tested on: MDA-MB-435
[44] = tested on: ACHN renal
[45] = tested on: TK-10 renal
[46] = tested on: SK-OV-3 ovarian
[47] = tested on: HCT-116 colon
[48] = tested on: M14 melanoma
[49] = tested on: NCI-H226 lung
[50] = tested on: UACC-257 melanoma
[51] = tested on: MDA-MB-231 breast
[52] = tested on: RXF 393 renal
[53] = tested on: IGROV1 ovarian
[54] = tested on: SK-MEL-5 melanoma
[55] = tested on: HOP-62 NSCLC
[56] = tested on: MCF7 breast
[57] = tested on: LOX IMVI melanoma
[58] = tested on: CAKI-1 renal

Nc1c2c(c(O)c3c1=C(CO)C=N3)=NCCS2
GI50 [1]: 165 nM | TGI [1]: 301 nM | GI50 [2]: 329 nM | TGI [2]: 1900 nM | GI50 [3]: 34.7 nM | TGI [3]: 108 nM | GI50 [4]: 164 nM | TGI [4]: 350 nM | GI50 [5]: 166 nM | TGI [5]: 381 nM | GI50 [6]: 291 nM | TGI [6]: 1050 nM | GI50 [7]: 250 nM | TGI [7]: 658 nM | GI50 [8]: 168 nM | TGI [8]: 306 nM | GI50 [9]: 167 nM | TGI [9]: 332 nM | GI50 [10]: 235 nM | TGI [10]: 774 nM | GI50 [11]: 156 nM | TGI [11]: 330 nM | GI50 [12]: 161 nM | TGI [12]: 345 nM | GI50 [13]: 318 nM | TGI [13]: 812 nM | GI50 [14]: 169 nM | TGI [14]: 329 nM | GI50 [15]: 147 nM | TGI [15]: 284 nM | GI50 [16]: 583 nM | TGI [16]: 3120 nM | GI50 [17]: 97.1 nM | TGI [17]: 352 nM | GI50 [18]: 224 nM | TGI [18]: 484 nM | GI50 [19]: 202 nM | TGI [19]: 391 nM | GI50 [20]: 222 nM | TGI [20]: 512 nM | GI50 [21]: 180 nM | TGI [21]: 329 nM | GI50 [22]: 283 nM | TGI [22]: 804 nM | GI50 [23]: 761 nM | TGI [23]: 2500 nM | GI50 [24]: 317 nM | TGI [24]: 1230 nM | GI50 [25]: 127 nM | TGI [25]: 253 nM | GI50 [26]: 243 nM | TGI [26]: 682 nM | GI50 [27]: 184 nM | TGI [27]: 346 nM | GI50 [28]: 38.9 nM | TGI [28]: 154 nM | GI50 [29]: 223 nM | TGI [29]: 541 nM | GI50 [30]: 148 nM | TGI [30]: 285 nM | GI50 [31]: 136 nM | TGI [31]: 264 nM | GI50 [32]: 79.4 nM | TGI [32]: 370 nM | GI50 [33]: 325 nM | TGI [33]: 1740 nM | GI50 [34]: 256 nM | TGI [34]: 824 nM | GI50 [35]: 311 nM | TGI [35]: 1200 nM | GI50 [36]: 177 nM | TGI [36]: 330 nM | GI50 [37]: 39.7 nM | TGI [37]: 146 nM | GI50 [38]: 307 nM | TGI [38]: 880 nM | GI50 [39]: 175 nM | TGI [39]: 317 nM | GI50 [40]: 56.1 nM | TGI [40]: 219 nM | GI50 [41]: 287 nM | TGI [41]: 1050 nM | GI50 [42]: 191 nM | TGI [42]: 430 nM | GI50 [43]: 52.1 nM | TGI [43]: 169 nM | GI50 [44]: 269 nM | TGI [44]: 844 nM | GI50 [45]: 420 nM | TGI [45]: 1460 nM | GI50 [46]: 346 nM | TGI [46]: 1200 nM | GI50 [47]: 223 nM | TGI [47]: 524 nM | GI50 [48]: 83.9 nM | TGI [48]: 215 nM | GI50 [49]: 199 nM | TGI [49]: 471 nM | GI50 [50]: 142 nM | TGI [50]: 288 nM | GI50 [51]: 296 nM | TGI [51]: 834 nM | GI50 [52]: 289 nM | TGI [52]: 1240 nM | GI50 [53]: 209 nM | TGI [53]: 535 nM | GI50 [54]: 21.5 nM | TGI [54]: 54.3 nM | GI50 [55]: 175 nM | TGI [55]: 317 nM

C=C(C)[C@@H]1CC[C@]2(C(=O)O)CC[C@]3(C)[C@H](CC[C@@H]4[C@@]5(C)CCC(NC(=O)c6cccc(OC(C)=O)c6OC(C)=O)C(C)(C)[C@@H]5CC[C@]43C)[C@@H]12 (some centres not stated)
GI50 [1]: 576 nM | TGI [1]: 2500 nM | GI50 [2]: 585 nM | TGI [2]: 18900 nM | GI50 [3]: 317 nM | TGI [3]: 1470 nM | GI50 [4]: 1040 nM | TGI [4]: 3260 nM | GI50 [5]: 418 nM | TGI [5]: 3730 nM | GI50 [6]: 780 nM | TGI [6]: 11900 nM | GI50 [7]: 981 nM | TGI [7]: 4020 nM | GI50 [8]: 452 nM | TGI [8]: 5440 nM | GI50 [9]: 940 nM | TGI [9]: > 100000 nM | GI50 [10]: 568 nM | TGI [10]: 3140 nM | GI50 [11]: 209 nM | TGI [11]: 618 nM | GI50 [12]: 283 nM | TGI [12]: 1430 nM | GI50 [13]: 566 nM | TGI [13]: 4280 nM | GI50 [14]: 1570 nM | TGI [14]: 4510 nM | GI50 [15]: 832 nM | TGI [15]: 25700 nM | GI50 [16]: 697 nM | TGI [16]: 4440 nM | GI50 [17]: 615 nM | TGI [17]: 4620 nM | GI50 [18]: 628 nM | TGI [18]: > 100000 nM | GI50 [56]: 586 nM | TGI [56]: 6420 nM | GI50 [20]: 1270 nM | TGI [20]: 4520 nM | GI50 [21]: 520 nM | TGI [21]: 14500 nM | GI50 [22]: 460 nM | TGI [22]: 3030 nM | GI50 [57]: 488 nM | TGI [57]: 1740 nM | GI50 [23]: 439 nM | TGI [23]: 2250 nM | GI50 [24]: 661 nM | TGI [24]: 3470 nM | GI50 [25]: 882 nM | TGI [25]: > 100000 nM | GI50 [26]: 332 nM | TGI [26]: > 45700 nM | GI50 [27]: 1920 nM | TGI [27]: > 27300 nM | GI50 [28]: 380 nM | TGI [28]: 1420 nM | GI50 [29]: 497 nM | TGI [29]: 2850 nM | GI50 [30]: 644 nM | TGI [30]: 1970 nM | GI50 [31]: 507 nM | TGI [31]: > 100000 nM | GI50 [32]: 806 nM | TGI [32]: 3140 nM | GI50 [33]: 651 nM | TGI [33]: 3460 nM | GI50 [34]: 817 nM | TGI [34]: 6430 nM | GI50 [35]: 918 nM | TGI [35]: > 100000 nM | GI50 [36]: 562 nM | TGI [36]: 3890 nM | GI50 [37]: 345 nM | TGI [37]: 1900 nM | GI50 [38]: 996 nM | TGI [38]: 3240 nM | GI50 [39]: 1180 nM | TGI [39]: 3670 nM | GI50 [40]: 409 nM | TGI [40]: 2470 nM | GI50 [42]: 371 nM | TGI [42]: 1620 nM | GI50 [43]: 382 nM | TGI [43]: 1610 nM | GI50 [44]: 323 nM | TGI [44]: 2610 nM | GI50 [45]: 656 nM | TGI [45]: > 100000 nM | GI50 [46]: 1890 nM | TGI [46]: > 20400 nM | GI50 [58]: 371 nM | TGI [58]: 2240 nM | GI50 [47]: 376 nM | TGI [47]: 1540 nM | GI50 [48]: 399 nM | TGI [48]: 2250 nM | GI50 [49]: 1690 nM | TGI [49]: 4590 nM | GI50 [50]: 209 nM | TGI [50]: 780 nM | GI50 [51]: 1090 nM | TGI [51]: 3880 nM | GI50 [52]: 1000 nM | TGI [52]: 3120 nM | GI50 [53]: 604 nM | TGI [53]: 5340 nM | GI50 [54]: 480 nM | TGI [54]: 1670 nM | GI50 [55]: 785 nM | TGI [55]: 3300 nM
